“Also recorded” adds a separate entry of the source. Where no end group is shown, it is not given here. The star is where a group is joined. Cam = NC(=O)C*
What was measured:
[1] = test system: Vivax-2 binding to sulfatide; experiment: Inhibition of binding of Vivax-2 to sulfatide; set-up: species or system P. vivax; settings: for effect on binding to sulfatide: 1 mg/ml
Procedure: (§1) Solid phase binding assays: Thirty μl of lipids or steroids dissolved in methanol (20-250 μg/ml) were dried into wells of microassay plates (Cat.# 3911—Falcon—Oxnard, Calif.). The plates were then blocked with 1% BSA/PBS pH 7.4 (BSA/PBS) for 30 minutes. Wells were incubated with recombinant protein (or with parasite extract) in PBS/BSA for 1 hour, washed 3 times with BSA/PBS, incubated for 1 hour with monoclonal antibodies 2F2 or 2A10 in BSA/PBS, washed 3 times, and then incubated with (10^5 cpm/well) ^125I protein A (Amersham Corp., Arlington Hts., Ill.). In the case of the P. berghei CS protein, wells were incubated with ^125I labelled mAb 3D11. Wells were washed again and the bound radioactive protein was counted in an LKB gamma-counter (model #1260, Pharmacia, Inc., Gaithersburg, Md.). For inhibition assays, the recombinant proteins were mixed with dilutions of the various polymers in BSA/PBS, the mixture was loaded into the wells of the microtiter plates, and the binding assay performed as above. See also, Roberts, et al. J. Biol. Chem. 260:9405-9411, 1985.

[2] = test system: Vivax-2 binding to cholesterol-sulfate; experiment: Inhibition of binding of Vivax-2 to cholesterol-sulfate; set-up: species or system P. vivax
Procedure: as §1

[3] = test system: binding of CSFZ (Cys) to HepG2 cells; experiment: Peptide inhibition of CSFZ (Cys) binding to HepG2 cells; set-up: species or system human; settings: peptides 0-250 μg/ml
Procedure: For indirect immunofluorescence, HepG2 cells (ATCC number HB8065, Rockville, Md.; Knowles, B. P., et al., Science 209:497-499, 1980) were grown on slides (Cel-Line Associates, Inc., Newfield, N.J.) overnight in minimum essential medium with 10% fetal calf serum (FCS-MEM; GIBCO, Grand Island, N.Y.), 1 mM L-glutamine (GIBCO), 3 mg/ml glucose (Sigma), 1×nonessential amino acids (GIBCO), 50 μg/ml penicillin, and 100 μg/ml streptomycin (GIBCO). For the enzyme-linked immunosorbent assay, 10^5 HepG2 cells were deposited in 96-well Falcon tissue culture plates (Becton Dickinson, Oxnard, Calif.) and grown for 24 hr. in FCS-MEM. The cells were fixed with 4% paraformaldehyde, washed three times with PBS, and stored at 4° C. in BSA/TPBS until use. Before the experiments, plates were blocked for 2 hr. at 37° C. with 1% gelatin, 0.05% Tween in PBS (pH 7.4) (gelatin/TPBS). The cells were sequentially incubated at 37° C. with 50 μl of recombinant protein diluted in gelatin/TPBS for 1 hr. MAb 2A10 at a concentration of 10 μg/ml for 30 min. and goat anti-mouse immunoglobulin conjugated to alkaline phosphatase (Boehringer Mannheim) for 30 min. […] After 15 min., fluorescence was read in a Fluoroskan II plate reader (Flow Lab Inc., McLean, Va.) with excitation filter 350 nm and emission filter 460 nm. In the peptide inhibition experiments, wells were first incubated for 1 hr. at 37° C. with peptides diluted in gelatin/TPBS, washed three times with gelatin/TPBS, and then incubated with recombinant CSFZ (Cys) at a concentration of 2.5 μg/ml for 1 hr. at 37° C.
The same assay system was used to evaluate the ability of the various synthetic peptides to inhibit the binding of CSFZ (Cys) to the HepG2 cells. Paraformaldehyde-fixed immobilized HepG2 cells were pre-incubated with peptides at concentrations between 0 and 250 μg/ml, washed, and incubated with CSFZ (Cys) at 2.5 μg/ml. After washing, the cells were incubated with MAb 2A10 followed by anti-mouse IgG conjugated to alkaline phosphatase. […] Each peptide concentration was assayed in triplicate wells and the means of the fluorescent reading were calculated. […] The cysteines and the sulfhydryl groups were necessary for inhibition (Pf1A, Pf1B and Pf2A were not active). […] The results are shown graphically in FIG. 7 wherein percent inhibition (after subtraction of background) is plotted as a function of peptide concentration. Pf1: open circles; Pf2: dark circles; Pf3: open upright triangles; Pf1A dark square; Pf1B open inverted triangles; Pf2A dark triangle; Pf70 open diamond; Pf25C dark diamond. Standard deviations were no greater than ±5% of the plotted mean.

[4] = test system: binding of CS27IVC to liver sections; experiment: Peptide inhibition of CS27IVC binding to frozen liver sections; set-up: species or system rat; settings: peptide preincubation, up to 500 μg/ml
Procedure: The procedure was carried out essentially as described by Dukor P. et al., Proc. Natl. Acad. Sci. USA 67:991-997, 1970 and Imai Y. et al., J. Cell. Biol. 111:1225-1232, 1990. Rats were euthanized with CO2. Small pieces of the liver, spleen, heart, brain and lung were removed, snap frozen in liquid nitrogen, embedded in Tissue Tek O.C.T. (Miles, Inc., Naperville, Ill.), and cut into 5 μm sections. Sections were dried for 30 min., fixed for 10 min. in 4% paraformaldehyde, rinsed three times with phosphate-buffered saline (PBS), and either used immediately or stored at 4° C. in 1% BSA, 0.5% Tween, PBS (BSA/TPBS). After blocking with 100 mM glycine (pH 7.2) and with BSA/TPBS, the sections were sequentially incubated at 37° C. with recombinant proteins for 1 hr, 10 μg/ml MAb 2A10 for 45 min., and rat anti-mouse immunoglobulin conjugated to fluorescein isothiocyanate (Boehringer Mannheim, Indianapolis, Ind.) for 45 min. The slides were counterstained for 10 min. with 0.3% Evans blue, rinsed extensively in PBS, and finally observed under a fluorescence microscope. For peptide inhibition experiments, the sections were first incubated with the peptide at various concentrations in BSA/TPBS for 1 hour at 37° C., washed six times with BSA/TPBS, and then stained with 2.5 μg/ml CS recombinant protein as described above. In a few experiments, the tissues were fixed for 10 min. with methanol, acetone, or 4% paraformaldehyde containing 0.5% glutaraldehyde.

P. berghei sporozoites = experiment: Infection assay of HepG2 cells with polymers; assay type: cell-based
Procedure: Infection assay: Semiconfluent monolayers of HepG2 cells were grown in 10% FCS/MEM on 8 chamber slides (#4808 Lab-tek -Naperville, Ill.) for 24 hours prior to each experiment. Sporozoites were pre-incubated in media alone or with the various polymers for 15 minutes at 4° C. 5×10^4 sporozoites, in a volume of 10 μl, were added per chamber. After 4 hours of incubation at 37° C., the medium containing the sporozoites was gently aspirated, and 0.5 ml MEM/10% FCS was added. Fresh medium was added at 18 hours and 28 hours, and then cells were fixed with methanol containing 0.3% H2O2 at 48 hours. After fixation, the wells were blocked with 10% FCS/PBS and were incubated with 10 μg/ml of mAb 2E6. Binding of the mAb was detected with a polyclonal goat anti-mouse Ig conjugated to horseradish peroxidase. […] The parasites in each well are counted under a 40× light microscope objective.
The cells were fixed and stained with mAb 2E6, followed by goat-anti-mouse linked to horseradish peroxidase. Numbers represent schizonts counted/20 fields under 40× magnification in a light microscope.

Substance	effect on binding to sulfatide [1]	% INHIBITION ([1]; inhibitor 1 mg/ml) [%]	% INHIBITION ([2]; inhibitor 10 mg/ml) [%]	inhibition of CSFZ (Cys) binding to HepG2 cells [3]	inhibition of the binding of CS27IVC to liver sections [4]	other results
hyaluronic acid	no effect	0	28			% INHIBITION ([2]; inhibitor 1 mg/ml): 0%
PXSVTXGNGIQVRIKPGSAN (PC(Cam)SVTC(Cam)GNGIQVRIKPGSAN) [Pf1B]				not active	failed to inhibit	
PCSVTCGNGIQVRIKPGSAN [Pf1]				inhibited the CSFZ (Cys) binding; also recorded: competes very effectively	inhibited the binding of CS27IVC	
PGSANKPKDELDYANDIEKK [Pf3, Contains only a C-proximal moiety of Region II+]					failed to inhibit; also recorded: No inhibition of binding	
chondroitin-sulfate C [CHONDROITIN SULFATE-C]	no effect	0	0			
keratan-sulfate	no effect	37	0			
AGNGIQVRIKPGSANKPKDE [Pf2A, Identical to Pf2 except the first cysteine has been replaced by an alanine residue]				not active	failed to inhibit	
chondroitin-sulfate A [CHONDROITIN SULFATE-A]	no effect	0	16			% INHIBITION ([2]; inhibitor 1 mg/ml): 0%; PARASITE # (exoerythrocytic liver stages in 20 microscope fields, duplicate) (P. berghei sporozoites; inhibitor 5 μg/ml present during invasion): 250; effect on sporozoite invasion (P. berghei sporozoites; present during invasion, 5-50 μg/ml): no effect
chondroitin-sulfate B [CHONDROITIN SULFATE-B]	only slightly inhibitory	34.3				% INHIBITION ([1]; inhibitor 100 μg/ml): 22.3%; % INHIBITION ([2]; inhibitor 0 mg/ml (so in the source)): 51%; % INHIBITION ([2]; inhibitor 100 μg/ml): 0%; % INHIBITION ([2]; inhibitor 1 mg/ml): 27%
CGNGIQVRIKPGSANKPKDE [Pf2]				inhibited the CSFZ (Cys) binding; also recorded: competes much less effectively	inhibited the binding of CS27IVC	
PASVTAGNGIQVRIKPGSAN [Pf1A, Identical to Pf1 except alanine residues are substituted for the two cysteines]				not active	failed to inhibit	
dermatan sulfate	no effect					
KPKHKKLKQPADGNPDPNAN [Pf70]				no inhibitory effect	failed to inhibit	
